Data on one compound can be found in patent publication EP4537820A1, “COMPOUND AND COMBINATIONS COMPRISING SAID COMPOUND TO IMPROVE IMMUNE RESPONSE” (Institut Gustave-Roussy, priority 2023, dated 2025).

The test system of assay [1] is MCA205-Glob-SL8-intron cells. In words: MHC-I expression, antigen presentation and PD-L1 surface expression by flow cytometry. The assay is classed as cell-based, mouse. Conditions: 24 hours. The method, then:
2×10^5 of MCA205-Glob-SL8-intron cells were plated in 6-well plates and incubated overnight. The next day cells were treated with different concentrations of drugs for 24h. After treatment, cells were harvested with trypsin before being stained with Zombie Aqua (#423102, Biolegend) and antibodies presented in Table 1 following the protocol provided by the supplier. Samples were acquired on a FACS LSRFortessa X20 (BD Biosciences) and data was analysed with FlowJo (V10) software (TreeStar, Inc.). Table 1: Panels of antibodies for the study of surface expression of MHC-I molecules and SIINFEKL presentation in MCA205-Glob-SL8-intron.
Inventors previously reported a novel and unexpected role of the REGγ-20S complex in the degradation of MHC-I peptides in cancer. In order to elucidate the potential impact of compound 58 on the REGγ-20S complex's modulation of antigenic peptide degradation, they treated mouse MCA205 cells stably expressing the globin-SL8-intron construct with increasing concentrations of compound 58 for 24 hours.
Additionally, they explored the impact of compound 58 on the expression of MHC-I on the surface of MCA205 cells stably expressing the globin-SL8-intron construct. After treating these cells with varying doses of compound 58 for 24 hours, they assessed the levels of murine MHC-I H2-K^b and H2-D^b using flow cytometry. The percentage of cells labeled positively for H2-K^b and H2-D^b in the treated conditions was compared to that in the DMSO control condition.
Furthermore, inventors investigated whether compound 58 had the capability to alter PD-L1 expression on the cell surface of treated tumor cells. To examine this, they exposed MCA205 cells stably expressing the globin-SL8-intron construct to varying concentrations of compound 58 for 24 hours and subsequently assessed PD-L1 expression levels via flow cytometry.
A general note: In flow cytometry, cells or beads pass a laser one at a time.

For assay [2], the system named is human constitutive 20S proteasome (h20S). As to the kind of experiment: Peptide degradation assay with Fluorescamine (KH-52), 20S alone. Type of assay: biochemical. Conditions: different concentrations tested, 37°C. How it is done: Degradation of the 52 amino acid peptide KH-52: […], Boulpicante et al.) by the 20S proteasome was followed by amino-acid group generation using Fluorescamine (#F9015, Sigma-Aldrich). The peptide substrate was incubated at 100µM with 25nM 20S, with or without 160nM REGγ and with different concentration of the tested compounds or DMSO. Assays were performed in 100µL in phosphate buffer (pH 6.8) and incubated at 37°C in a water bath for 8 hours. After 4, 6 and 8 hours, 22µL of sample were retrieved and added to 88µL of phosphate buffer before being stored at - 20°C prior to revelation. For the revelation, samples were thawed and filtered in a centrifuge 20min at 4°C 1kDa filters (#OD003C34, Pall Corporation). To avoid any amino group contamination, filtered were washed in phosphate buffer before use. 20µL of filtered-sample were plated in triplicates in a black 96-wells plate (#237108, Thermo Scientific) and 10µL of fluorescamine (1mg/mL, in 100% acetone) was added to the samples. The plate was placed on agitation for 1min before the reaction was stopped by adding 200µL of water to each well. The fluorescence intensity was measured using a FluoSTAR plate reader (BMG Labtech) with excitation wavelength at 355nm and emission wavelength at 460nm.
These findings were established through both in vitro degradation assays and T cell experiments. […]

The test system of assay [3] is A375 REGγ KO cells. As to the kind of experiment: MTT assay. The assay is classed as cell-based. The note with it: Homo sapiens, A-375, 24-hour treatment, read-out: IC50 (cell viability). The method, then: (§1) 2,5×10^4 of MCA cells or 5×10^4 of MCA c13 cells were plated in quadruplicates in clear 96-well plates and incubated overnight. The next day, cells were with various concentration of the tested compounds for 24h. After treatment, media was carefully removed before adding 50µL of new media and 10µL of tetrazolium salt solution (5mg/mL in PBS) and homogeneizing the well by pipetting up and down. The plate was then incubated for 2 hours at 37°C. After incubation, plate was centrifuged 5min at 1500rpm before adding 150µL of DMSO to each well to solubilize the formazan cristals. The plate was incubated on agitation for 10min and absorbance was read at 544nm using a EL808 (Biotek) plate reader.
(§2) To assess the efficacy of compound 58 against tumor cell lines, inventors initially aimed to determine its IC50 values in both mouse and human cell lines. They utilized an MTT assay to ascertain these values for mouse MCA fibrosarcoma and human A375 melanoma cell lines. Specifically, they treated 2.5 × 10^4 MCA WT or MCA REGγ KO cells and 5 × 10^4 human A375 WT or A375 REGγ KO cells with varying concentrations of compound 58 for a 24-hour duration.
(Formazan colour is commonly taken as a measure of viable cells.)

The test system of assay [4] is A375 WT cells (A375 melanoma). As to the kind of experiment: MTT assay. The note with it: Homo sapiens, A-375, 24-hour treatment, read-out: IC50 (cell viability). The assay is classed as cell-based. How it is done:
as §1, §2

Assay [5] deals with MCA REGγ KO cells. As to the kind of experiment: MTT assay. The assay is classed as cell-based. The note with it: Mus musculus, 24-hour treatment, read-out: IC50 (cell viability). The method, then:
as §1, §2

Assay [6] deals with MCA WT cells (MCA fibrosarcoma). As to the kind of experiment: MTT assay. Type of assay: cell-based. Conditions: Mus musculus, 24-hour treatment, read-out: IC50 (cell viability). The method, then: as §1, §2
Where [7] appears, read: 5µm to 25 µM, compared to DMSO control.

As usually defined, the IC50 is the midpoint of a concentration-inhibition curve. `Cc1ccc(N=Nc2ccc(C)cc2NC(=O)Nc2ccccc2F)cc1` [compound 58]: the “presentation of the SIINFEKL peptide (Kb-SIINFEKL complexes on the cell surface)” value in assay [1] (25µM, 25-D1.16 antibody, compared to untreated cells) is on record as “significant increase”. The “expression of H2-D^b molecules on the cell surface” value in assay [1] (setting [7]) is “dose-dependent increase”. Further, the “expression of H2-K^b molecules on the cell surface” value in assay [1] (setting [7]) was “dose-dependent increase”. The “PD-L1 expression on the cell surface” value in assay [1] (varying concentrations, dose-dependent manner) is recorded as “significantly increased PD-L1 expression”. For the same compound, in assay [2], the “rate of peptide bond hydrolysis of KH-52” value is given as “no impact”. Further, the IC50 in assay [3] came out at 486 µM; in assay [4], 150 µM; in assay [5] it was 99.6 µM; in assay [6], 39.1 µM.
